# Source: patent publication US8354387B2, “Methods and compositions for delivering siRNA into mammalian cells” (Centre National de la Recherche Scientifique, priority 2004, dated 2013)
# System: human fibroblasts (Hs68)
# Test: pRL-SV40 plasmid transfection of synchronized or arrested cells (luciferase activity)
# Type: cell-based
# Details: for luciferase activity in serum-starved, arrested cells in comparison with dividing cells: 24 hrs after transfection; for transfection efficiency after 24 hrs, relative to expression after 48 hrs: synchronized Hs68, pRL-SV40, 24 hrs
# Procedure: FIG. 2: The NLS of MPG is essential for nuclear translocation: A/ Purified GST-importin α and β were coupled onto GST Sepharose resin and incubated in batch with MPG/DNA or MPG^ΔNLS/DNA complexes for 1 hr, extensively washed and incubated with […] glutathione to elute the complexes. DNA was then extracted and analyzed by agarose gel electrophoresis (0.8%). […] B/ Delivery of pRL-SV40 plasmid: MPG/DNA (black boxes) or MPG^ΔNLS/DNA (grey boxes) complexes formed at a charge ratio of 5/1 with 100 ng pRL-SV40 plasmid encoding the reporter gene luciferase were overlaid onto synchronized or arrested (-FCS) human fibroblasts (Hs68). Luciferase activity was monitored 12 hrs and 24 hrs after release from synchrony, or after 24 hrs for arrested cells and 48 hrs for asynchronous cells. Control transfections were performed with Lipofectamine™ (white boxes) or naked plasmid (dashed boxes).
# Hs68, Cos-7 and HeLa cell lines were cultured in Dulbecco's Modified Eagle's Medium supplemented with 2 mM glutamine, 1% antibiotics (streptomycin 10 000 μg/ml, penicillin, 10,000 IU/ml) and 10% (w/v) fetal calf serum (FCS) at 37° C. in a humidified atmosphere containing 5% CO2 as described previously (18). For MPG or MPG^ΔNLS-mediated gene delivery, peptide carrier/DNA complexes were formed in DMEM or PBS (500 μl of DMEM containing 100 ng of DNA complexed with MPG at a charge ratio 5:1) and incubated for 30 min at 37° C. Cells grown to 60% confluence were then overlaid with these preformed complexes. After 30 min incubation at 37° C., 1 ml of fresh DMEM supplemented with 10% fetal calf serum was added to the cells, without removing the overlay of carrier/DNA, and cells were returned to the incubator.
# For cell cycle-dependent studies, Hs68 fibroblasts were synchronized by serum deprivation for 40 hrs, then restimulated to enter the cycle and grow into early G1 for 4 hrs by addition of fresh DMEM supplemented with 20% FCS, and incubated in the presence of MPG/DNA complexes as described above. Luciferase activity was monitored as described previously (19) and control transfection experiments were performed using Lipofectamine™. When transfected at 4° C., cells were incubated for 1 hour at 4° C. prior to transfection, then incubated with MPG/DNA complexes for another 2 hours at 4° C., extensively washed and finally returned to incubation at 37° C. in fresh medium supplemented with serum. When transfections were performed in the presence of bafilomycin A ([…]), cytochalasin B (50 μg/ml) or chloroquine (100 μM), cells were preincubated with these inhibitors of endocytosis for 1 hour prior to transfection.
# In order to study the impact of the NLS of MPG on nuclear translocation of plasmids, transfection experiments were performed on synchronized or growth-arrested cells with either MPG or its NLS mutant. Cells were synchronized in G0 by serum starvation then released back into the cell cycle by addition of serum. 4 hours after release, cells were transfected with MPG/DNA or MPG^ΔNLS/DNA complexes and transgene expression was monitored 12 hours later, when most of the cells were in late G1, and […] later, in late G2 prior to mitosis. Data were normalized with luciferase activity obtained 48 hours after transfection, and compared with asynchronous cells. […] After 24 hrs, transfection efficiency reached 70%. In contrast, when transfection was performed with MPG^ΔNLS (SEQ ID NO:3), luciferase activity was negligible after 12 hrs (7%), and only reached 26% after 24 hrs. […]
Sequence,"luciferase activity in serum-starved, arrested cells in comparison with dividing cells","transfection efficiency after 24 hrs, relative to expression after 48 hrs","luciferase expression after 12 hrs, relative to expression after 48 hrs (synchronized Hs68, pRL-SV40, 12 hrs)"
"GALFLGFLGAAGSTMGAWSQPKKKRKV (carrier peptide) [MPG, bipartite amphipathic peptide derived from fusion peptide domain of HIV-1 gp41 and NLS of SV40 large T antigen]",50%,70%,
"GALFLGFLGAAGSTMGAWSQPKSKRKV (carrier peptide) [MPG^ΔNLS, MPG variant with single mutation of the second lysine residue in the NLS motif to serine]",no transfection was observed,26%,7%
